Consider three substances from patent US20070154534A1, “Use of secretin in the treatment of schizophrenia” (priority 2003, published 2007).

Marks after values point to notes of the source that are not given here. Ends that are not written are not given here. Some results are limits rather than exact numbers.

For data set [1] the following is noted: clinical units (CU); 0.2 mcg = 1 CU; cited from earlier work.
In data set [2] the test system is patients with refractory schizophrenia. Particulars: in vivo, iv.
Description: Twenty-two subjects were enrolled in the protocol and were randomly assigned to receive one dose of intravenous porcine secretin (SECRETIN-FERRING™, Ferring Laboratories, Inc., Suffern, N.Y., United States of America) or normal saline under double-blind conditions. The protocol allowed for only one infusion of secretin regardless of response. The first seven subjects received either 75 CU of secretin dissolved in 7.5 mL of normal saline (n=4), or saline alone (n=3). The remaining 15 subjects received 150 CU of secretin (n=7) or saline (n=8).
Data set [3] shares this test system. In words: Double-blind placebo-controlled pilot study of a single intravenous dose of porcine secretin, rated with PANSS and CGI. The data set is classed as in vivo, human. Particulars: for PANSS negative: baseline 25.5; for PANSS positive: baseline 27; for PANSS general: baseline 48.7; for PANSS total: baseline 101.2. The procedure: A pilot study of secretin for treatment of refractory schizophrenia was performed. Twenty-two patients were randomized to a single intravenous dose of porcine secretin or placebo. Patients were evaluated with the Positive and Negative Symptom Scale for Schizophrenia (PANSS) and the Clinical Global Impression Scale (CGI) at baseline, two days after secretin infusion and weekly for four weeks. Several patients treated with secretin experienced clinically meaningful, though transient when given a single dose, reductions in symptoms and a greater percentage of patients treated with secretin were rated as improved with the CGI.
All subjects were inpatients at Dorothea Dix Hospital in Raleigh, N.C. United States of America. The protocol was approved by the University of North Carolina at Chapel Hill Committee for the Protection of the Rights of Research Subjects. Subjects or their guardians provided written informed consent. Patients met the following inclusion criteria: (1) age 18-60; (2) DSM-IV diagnosis of schizophrenia or schizoaffective disorder; (3) severe residual symptoms despite at least three adequate trials of anti-psychotic drugs, including at least one atypical drug. Residual symptoms were defined as active delusions, hallucinations, or thought disorder, accompanied by unemployment and lack of significant social relationships outside the family of origin; (4) a baseline PANSS score of at least 70; (5) no changes in psychotropic medications for 4 weeks prior to study entry.
Subjects were assessed at baseline, two days post-infusion, and weekly for four subsequent weeks, with the Clinical Global Impression Scale (CGI) and the Positive and Negative Symptom Scale for Schizophrenia (PANSS). All raters achieved inter-rater reliability of at least 0.90 for the PANSS, and each subject had the same rater for each assessment. Qualitative impressions were also collected from clinical staff during the course of the trial.

Setting [4] is: Week 1, single i.v. dose 75 or 150 CU, n=11, mean.
Where [5] appears, read: Week 1 after single i.v. dose 75 or 150 CU, n=11, mean.
[6] abbreviates: Week 2, single i.v. dose 75 or 150 CU, n=11, mean.
Where [7] appears, read: Week 2 after single i.v. dose 75 or 150 CU, n=11, mean.
The mark [8] stands for this setting: Week 3, single i.v. dose 75 or 150 CU, n=11, mean.
Setting [9] is: Week 3 after single i.v. dose 75 or 150 CU, n=11, mean.
[10] abbreviates: Week 4, single i.v. dose 75 or 150 CU, n=11, mean.
[11] abbreviates: Week 4 after single i.v. dose 75 or 150 CU, n=11, mean.
The mark [12] stands for this setting: within the first week after infusion, of 11 secretin-treated patients.

For “biologically derived porcine secretin: biologically derived porcine secretin, comparison for SECREFLO potency (HSDGTFTSELSRLRDSARLQRLLQGLV; ends and bridges not checked; UniProt P63298 33-59, looked up)”, in data set [1], the “Potency per milligram of peptide” value was 3000 CU per milligram.

Turning to “SECREFLO: Secretin commercially available under the trademark SECREFLO from RepliGen Corporation (HSDGTFTSELSRLRDSARLQRLLQGLV-NH2; ends and bridges not checked; UniProt P63298 33-59, looked up)”, the “Potency per milligram of peptide” value in data set [1] is “approximately 5000 CU per milligram”.

For the substance Secretin, in data set [2], the Allergic reactions result is given as “no allergic reactions were observed”, the “Premature dropouts or serious adverse events during the trial” value is on record as “no premature dropouts or serious adverse events” and the Side effects entry is reported as “no side effects noted”. Also, the “Patients with a clinically meaningful response” value in data set [3] (75 CU single i.v. dose) was 1 of 4. Further, the “Patients with a clinically meaningful response” value in data set [3] (150 CU single i.v. dose) was 2 of 7. The CGI-I in data set [3] (Day 2 after single i.v. dose 75 or 150 CU, n=11, mean (SD)) is 3.5 (0.8)*. The “Group by time interaction for the CGI-Improvement (CGI-I) scale (repeated measures ANOVA, vs placebo)” value in data set [3] (F=0.69) was “no significant group by time interaction”. Besides, the “Group by time interaction for PANSS total, positive, negative and general psychopathology scores (repeated measures ANOVA, vs placebo)” value in data set [3] (F=1.72, 1.08, 0.6679, 0.41) was “no significant group by time interactions”. Besides, in data set [3] (setting [4]), the PANSS negative is on record as 24.3, the PANSS positive worked out at 25 and the PANSS general was found to be 45.8. In data set [3] (setting [5]), the CGI-I was 3.4* and the PANSS total turned out to be 95.1. In data set [3] (setting [6]), the PANSS negative was 24.7, the PANSS positive is 26.9 and the PANSS general was 49.2. In data set [3] (setting [7]), this substance showed a CGI-I of 3.9 and a PANSS total of 100.8. In data set [3] (setting [8]), this substance registered a PANSS negative of 24.9, a PANSS positive of 27 and a PANSS general of 48.2. Besides, in data set [3] (setting [9]), the CGI-I was 3.8* and the PANSS total was found to be 100.1. Besides, in data set [3] (setting [10]), the PANSS negative is on record as 24.5, the PANSS positive was determined as 26.7 and the PANSS general is reported as 48.3. In data set [3] (setting [11]), this substance returned a CGI-I of 3.9 and a PANSS total of 99.5. Also, the “Time until reversion to usual behavior and level of function” value in data set [3] (patient of Example 1, 75 CU) is on record as “four”. The “Time to onset of clinical improvement (more interactive)” value in data set [3] (patient of Example 1, person, disorganized schizophrenia, 75 CU) is at most 24 h. Further, the “Time until return to baseline mental state” value in data set [3] (patient of Example 2, 150 CU) was at most 12 h. In addition, the “Time to onset of clinical improvement (more alert, coherent speech)” value in data set [3] (patient of Example 2, person, disorganized schizophrenia, 150 CU) is on record as “six”. Moreover, the “Time after infusion at which improvement was seen (agreed to attend off ward activities)” value in data set [3] (patient of Example 3, person, paranoid schizophrenia, 150 CU) stood at 48 h. In addition, in data set [3] (two days after infusion (p=0.03), week 1 (p=0.009), week 3 (p=0.002)), the “CGI-I scale vs placebo, post-hoc exploratory Student's t-tests” value was “significant improvement”. In data set [3] (setting [12]), the “Patients rated as minimally improved (qualitative grouping of CGI-I scores)” value is listed as “five”, the “Patients rated as much improved (qualitative grouping of CGI-I scores)” value is “three”, the “Patients rated as unchanged (qualitative grouping of CGI-I scores)” value is given as “two” and the “Patients rated as worse (qualitative grouping of CGI-I scores)” value is “one”.
